From patent US20240342292A1, “Compounds for the Degradation of EGFR Kinase” (BeiGene Switzerland GmbH, priority 2021, published 2024) come the findings set out here.

One experiment concerns Del19/T790M/C797S EGFR. Put plainly: EGFR degradation HTRF assay in H1975-clone #28 (DTC) cells. It is filed as cell-based. To be noted: H1975 # 28 DTC (Del19/T790M/C797S), 16h treatment; for DC50: HTRF; for Dmax (%): maximum percentage of degradation. The procedure, abridged: (§1)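 Engineered H1975 lines (exogenous mutant EGFR, endogenous copies knocked out, single clones sequence-verified); 16 h compound, 37 °C/5% CO2, 0.2% DMSO; top 10 uM, 5-fold, 8 pts; lysis 1 h RT, HTRF antibodies overnight RT; 4-parameter logistic fit → DC50.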
For orientation: TR-FRET usually uses a lanthanide donor and a delayed reading to cut background.

The target of another experiment is T1, L858R/T790M/C797S EGFR (Homo sapiens, UniProt P00533, C797S/L858R/T790M).
T1 construct: expressed in transfected cells; host or cells: H1975 clone #25 (lentiviral over-expression, endogenous EGFR knocked out by sgRNA)
The experiment is described as follows: EGFR degradation HTRF assay in H1975-clone #25 (LTC) cells. It counts as cell-based. As to conditions: 16h treatment; for DC50: H1975 # 25-LTC (L858R/T790M/C797S), HTRF; for Dmax: NCI-H1975, H1975 # 25-LTC (L858R/T790M/C797S), maximum percentage of degradation. The procedure, abridged: as §1

Each structure is given as a SMILES string.

T1 sequence (P00533 25-1210 T790M/C797S/L858R): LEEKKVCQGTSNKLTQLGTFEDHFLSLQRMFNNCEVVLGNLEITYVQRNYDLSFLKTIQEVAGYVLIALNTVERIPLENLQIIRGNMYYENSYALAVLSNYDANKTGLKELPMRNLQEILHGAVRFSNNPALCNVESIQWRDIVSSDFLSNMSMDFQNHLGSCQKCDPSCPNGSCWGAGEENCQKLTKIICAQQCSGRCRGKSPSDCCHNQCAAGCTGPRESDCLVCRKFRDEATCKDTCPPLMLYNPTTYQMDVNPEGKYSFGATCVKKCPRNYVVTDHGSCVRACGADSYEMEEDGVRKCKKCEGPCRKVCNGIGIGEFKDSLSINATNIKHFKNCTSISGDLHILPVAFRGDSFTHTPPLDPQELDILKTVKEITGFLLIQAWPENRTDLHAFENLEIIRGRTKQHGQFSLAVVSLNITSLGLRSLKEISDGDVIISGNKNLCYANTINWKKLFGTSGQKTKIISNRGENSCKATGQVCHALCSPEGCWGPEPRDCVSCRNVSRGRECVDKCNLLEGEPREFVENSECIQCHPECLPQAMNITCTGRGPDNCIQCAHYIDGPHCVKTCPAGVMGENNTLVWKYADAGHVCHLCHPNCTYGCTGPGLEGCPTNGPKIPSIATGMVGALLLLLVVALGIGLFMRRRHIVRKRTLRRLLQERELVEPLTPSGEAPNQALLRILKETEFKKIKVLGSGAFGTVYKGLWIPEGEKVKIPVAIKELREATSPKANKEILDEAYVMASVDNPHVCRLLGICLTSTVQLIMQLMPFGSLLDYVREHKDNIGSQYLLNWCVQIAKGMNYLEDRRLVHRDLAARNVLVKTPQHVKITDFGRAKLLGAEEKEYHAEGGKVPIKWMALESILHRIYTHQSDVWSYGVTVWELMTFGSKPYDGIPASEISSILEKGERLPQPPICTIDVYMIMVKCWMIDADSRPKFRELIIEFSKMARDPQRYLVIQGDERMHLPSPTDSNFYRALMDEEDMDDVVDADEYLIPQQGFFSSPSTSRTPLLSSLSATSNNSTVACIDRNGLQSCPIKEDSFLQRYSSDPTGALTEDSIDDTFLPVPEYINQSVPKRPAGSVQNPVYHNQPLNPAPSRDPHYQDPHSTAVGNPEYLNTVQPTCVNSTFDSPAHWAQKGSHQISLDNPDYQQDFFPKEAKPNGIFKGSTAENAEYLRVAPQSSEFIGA

Turning to `Cc1cc2cc(n1)-c1cnn(C)c1OCCC[C@@H](C)CN1/C(=N/C2=O)Nc2ccc(C(=O)N(C)CCC3CCN(c4cc(F)c([C@H]5CCC(=O)NC5=O)c(F)c4)CC3)cc21` [Example 279, (R,E)-N-(2-(1-(4-((R)-2,6-dioxopiperidin-3-yl)-3,5-difluorophenyl)piperidin-4-yl)ethyl)-N,1^1,2^6,7-tetramethyl-3-oxo-5^2,5^3-dihydro-1^1H,5^1H-11-oxa-4-aza-5(2,1)-benzo[d]imidazola-2(2,4)-pyridina-1(4,5)-pyrazolacycloundecaphane-5^6-carboxamide], in the experiment on Del19/T790M/C797S EGFR, the DC50 amounted to 0.75 nM and the “Dmax (%)” value is 82.08%. Further, at L858R/T790M/C797S EGFR, half-maximal degradation (DC50) was put at 1.33 nM and the greatest degradation seen (Dmax) turned out to be 83%.
For the compound `Cc1cc2cc(n1)-c1cnn(C)c1OCCC[C@@H](C)CN1/C(=N/C2=O)Nc2ccc(N3CCN([C@H]4CCN(c5ccc([C@H]6CCC(=O)NC6=O)nc5C)C[C@@H]4F)CC3)cc21` [Example 440, (R)-3-(5-((3S,4S)-3-fluoro-4-(4-((R,L)-1^1,2^6,7-trimethyl-3-oxo-5^2,5′-dihydro-1^1H,5^1H-11-oxa-4-aza-5(2,1)-benzo[d]imidazola-2(2,4)-pyridina-1(4,5)-pyrazolacycloundecaphane-5^6-yl)piperazin-1-yl)piperidin-1-yl)-6-methylpyridin-2-yl)piperidine-2,6-dione], in the experiment on Del19/T790M/C797S EGFR, the 50% degradation concentration (DC50) came out at 0.884 nM and the “Dmax (%)” value was 85.39%. At L858R/T790M/C797S EGFR, the DC50 came to 0.936 nM and the Dmax amounted to 93.5%.
Consider `Cc1cc2cc(n1)-c1cnn(C)c1OCCC[C@@H](C)CN1/C(=N/C2=O)Nc2cc(F)c(C3CCN(C(=O)[C@@H]4CCN(c5cc(F)c(C6CCC(=O)NC6=O)c(F)c5)C4)CC3)cc21` (stereo partly drawn) [Example 329, (R)-3-(2,6-difluoro-4-((R)-3-(4-((R,E)-5^5-fluoro-1^1,2^6,7-trimethyl-3-oxo-5^2,5^3-dihydro-1^1H,5^1H-11-oxa-4-aza-5(2,1)-benzo[d]imidazola-2(2,4)-pyridina-1(4,5)-pyrazolacycloundecaphane-5^6-yl)piperidine-1-carbonyl)pyrrolidin-1-yl)phenyl)piperidine-2,6-dione], for which, in the experiment with Del19/T790M/C797S EGFR, it took 2.19 nM to reach half-maximal degradation (DC50) and the “Dmax (%)” value is 68.61%. At L858R/T790M/C797S EGFR, half-maximal degradation (DC50) was put at 2.97 nM and the greatest degradation seen (Dmax) was determined as 78.7%.
On the same counts, the results for `Cc1cc2cc(n1)-c1cnn(C)c1OCCC[C@@H](C)CN1/C(=N/C2=O)Nc2ccc(N3CCN(CCCNc4cc(F)c([C@H]5CCC(=O)NC5=O)c(F)c4)CC3)cc21` [Example 400, (R)-3-(2,6-difluoro-4-((3-(4-((R,E)-1^1,2^6,7-trimethyl-3-oxo-5^2,5^3-dihydro-1^1H,5^1H-11-oxa-4-aza-5(2,1)-benzo[d]imidazola-2(2,4)-pyridina-1(4,5)-pyrazolacycloundecaphane-5^6-yl)piperazin-1-yl)propyl)amino)phenyl)piperidine-2,6-dione] are 0.628 nM, 79.74%, 0.915 nM and 89.8%.
On the same counts, the results for `Cc1cc2cc(n1)-c1cnn(C)c1OCCC[C@@H](C)CN1/C(=N/C2=O)Nc2ccc(N3CCC(C(=O)N4CCC(Oc5cc(F)c([C@H]6CCC(=O)NC6=O)c(F)c5)CC4)CC3)cc21` [Example 364, (R)-3-(2,6-difluoro-4-((1-(1-((R,E)-1^1,2^6,7-trimethyl-3-oxo-5^2,53-dihydro-1^1H,5^1H-11-oxa-4-aza-5(2,1)-benzo[d]imidazola-2(2,4)-pyridina-1(4,5)-pyrazolacycloundecaphane-5^6-yl)piperidine-4-carbonyl)piperidin-4-yl)oxy)phenyl)piperidine-2,6-dione] are 0.633 nM, 75.27%, 1.12 nM and 86.4%.

For orientation: DC50 means the concentration giving 50% degradation. A lower DC50 goes with a more potent degrader. As a reminder, the Dmax is the largest share of the target that was removed.
